How the values were obtained:
[1] = target: T1, Human recombinant TDP1 (Homo sapiens, UniProt Q9NUW8); test: Real-time oligonucleotide biosensor assay of TDP1 activity; assay type: biochemical; details: 1.5 nM TDP1, 50 nM biosensor, 26 °C, at least three experiments; read-out: TDP1 inhibitory activity IC50
T1 construct: made in house
Experimental: The inhibiting activity of the compounds against TDP1 was investigated using a real-time oligonucleotide biosensor assay.
The biosensor (5′-[FAM] AAC GTC AGGGTC TTC C [BHQ]-3′) was synthesized in the Laboratory of Nucleic Acid Chemistry at the Institute of Chemical Biology and Fundamental Medicine (Novosibirsk, Russia) and was used for TDP1 enzyme activity real-time fluorescence detection. The reaction mixture (200 µL) contained a TDP1 reaction buffer (50 mM Tris-HCl, pH 8.0, 50 mM NaCl, and 7 mM β-mercaptoethanol), 50 nM oligonucleotide, varied concentrations of the tested compounds, and purified TDP1 in a final concentration of 1.5 nM. The recombinant TDP1 was purified to homogeneity by chromatography on Ni-chelating resin and phosphocellulose P11, as described, using plasmid pET 16B-TDP1, kindly provided by Dr. K.W. Caldecott (University of Sussex, United Kingdom).
The reaction mixtures were incubated at a constant temperature of 26 °C in a POLARstar OPTIMA fluorimeter (BMG LABTECH, GmbH, Ortenberg, Germany). Fluorescence intensity was measured (Ex485/Em520 nm) every 1 min for 10 min. The average values of the half maximal inhibitory concentration (IC50) were determined using a six-point concentration response curve and calculated using MARS Data Analysis 2.0 (BMG LABTECH). The 50% inhibitory concentration (IC50) was defined as the concentration of the compound that inhibited 50% of the enzyme activity, when compared to the untreated controls. At least three independent experiments were carried out to obtain the IC50 values.

[2] = tested on: MRC-5 cells; test: Effect of compounds on topotecan cytotoxicity, MRC-5 (EZ4U); assay type: cell-based, human; details: MRC-5, 10 μM compound, topotecan 1 to 10 μM
Experimental: According the EZ4U test data the thiazolidine-2,4-diones were shown not to enhance the cytotoxic effect of topotecan at 10 μM (Figure 2C,D). […] It can be speculated that the decisive factor is the use of the thiazolidine-2,4-dione fragment as a central molecular scaffold, which is a pharmacophore for many targets. In particular, thiazolidine-2,4-diones are well-known for their antidiabetic, antitumor [20], and anti-inflammatory activities. Such promiscuity can lead to binding to a number of proteins/enzymes in cells other than TDP1.
Human colon adenocarcinoma HCT-116 and human lung fibroblast MRC-5 cell lines were provided by the Cell Culture Bank of the State Research Center for Virology and Biotechnology Vector, Novosibirsk, Russia. Cells were cultured in DMEM medium (Invitrogen) supplemented with 10% fetal bovine serum (FBS) (Invitrogen), penicillin (100 units/mL), and streptomycin (100 µg/mL) at 37 °C and 5% CO2 in a humid atmosphere. After the formation of a 30–50% monolayer, the tested compounds were added to the medium. Because the compounds are soluble in DMSO, we minimized the DMSO content in the culture medium. The volume of the added reagents was 1/100 of the total volume of the culture medium, and the amount of DMSO was 1% of the final volume. Control cells were grown in the presence of 1% DMSO. […]

T1 sequence (Q9NUW8 whole entry): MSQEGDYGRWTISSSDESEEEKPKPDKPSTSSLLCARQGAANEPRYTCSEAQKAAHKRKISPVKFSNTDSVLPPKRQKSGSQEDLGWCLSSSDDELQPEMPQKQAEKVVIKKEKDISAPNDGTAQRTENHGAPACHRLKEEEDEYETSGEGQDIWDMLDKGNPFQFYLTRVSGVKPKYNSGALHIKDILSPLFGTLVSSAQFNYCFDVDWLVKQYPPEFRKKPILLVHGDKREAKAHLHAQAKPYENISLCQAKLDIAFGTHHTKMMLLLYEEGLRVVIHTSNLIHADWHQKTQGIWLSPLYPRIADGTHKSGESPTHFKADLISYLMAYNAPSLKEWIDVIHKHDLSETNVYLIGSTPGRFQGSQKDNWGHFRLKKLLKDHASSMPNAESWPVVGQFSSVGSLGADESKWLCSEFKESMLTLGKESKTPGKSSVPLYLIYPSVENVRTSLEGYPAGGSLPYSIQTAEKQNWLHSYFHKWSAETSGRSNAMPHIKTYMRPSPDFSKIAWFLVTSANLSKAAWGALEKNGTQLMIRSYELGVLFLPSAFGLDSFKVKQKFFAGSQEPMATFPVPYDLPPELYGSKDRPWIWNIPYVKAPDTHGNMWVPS

Structure (SMILES): CC1(C)[C@H]2CC=C(CCN3C(=O)S/C(=C\c4ccc(Br)s4)C3=O)[C@@H]1C2 [Compound 21b, (Z)-5-((5-bromothiophen-2-yl)methylene)-3-(2-((1R,5S)-6,6-dimethylbicyclo[3.1.1]hept-2-en-2-yl)ethyl)thiazolidine-2,4-dione]
- IC50 [1]: 2500 ± 400 nM
- effect on the cytotoxic effect of topotecan [2]: protects MRC-5 cells

Source: article PMC9964680, “Novel TDP1 Inhibitors: Disubstituted Thiazolidine-2,4-Diones Containing Monoterpene Moieties” (International Journal of Molecular Sciences, 2023)
